Experiments:
H3R = target: T1, H3R (Rattus norvegicus, UniProt Q9QYN8); assay: Histamine H3R functional inverse agonist assay with OPCs (cAMP assay); format: cell-based; conditions: 30 nM to 3 µM compound, Forskolin 3 µM, absence of H3R agonist
T1 construct: endogenous in cells; host or cells: oligodendrocyte precursor cells (OPCs), untransfected
Protocol: Histamine receptor 3 (H3R), expressed on cell surface, is negatively coupled to adenylyl cyclase, which stimulates the formation of cyclic AMP (cAMP). In the absence of histamine, the constitutively active H3R would inhibit intracellular level of cAMP. Inverse agonists of H3R, which block constitutive activity of H3R, thus would raise the cAMP level. The ability of Example compound 2 to inhibit constitutive activity of H3R was determined in a cellular cAMP assay.
For each compound being assayed, OPCs were seeded in PO coated 96-well plate at a density of 20000 cells/well, and cultured in BDM with bFGF (10 ng/ml Petrotech) and PDGF (10 ng/ml Petrotech) for 24 hours. The cells were first treated with different concentration of example compound (30 nM to […]) for 30 minutes. Then the cells were stimulated with Forskolin ([…], Sigma) in the presence of the example compound for 15 minutes. The cAMP concentrations were measured by the cAMP Chemiluminescent Immunoassay Kit (Invitrogen, Cat. No. C10557). The cells were lysed with lysis buffer (60 μL, Invitrogen Kit reagent) at 37° C. for 30 minutes. […] Chemiluminescence signal was measured in a SpectraMax M5 Multi-Mode Microplate Readers (Molecular Devices) for 1 second per well.

[1] = tested on: remyelination in cuprizone/rapamycin-induced demyelination; assay: Mouse cuprizone/rapamycin-induced demyelination model (Black-gold II staining); format: in vivo, C57BL/6 mice; conditions: 30 mg/kg orally b.i.d. 9 days, n=7, P<0.05
Protocol: The ability of Example compound 2 to enhance in vivo remyelination was determined with the mouse cuprizone/rapamycin-induced demyelination model.
The cuprizone plus rapamycin model was conducted with the protocol as follows: rapamycin was dissolved in 100% ethanol and stored at −20° C. until use. Immediately before injection, the rapamycin was diluted in vehicle solution to get a final concentration in 5% PEG-400, 5% Tween 80, and 4% ethanol. The C57BL/6 mice at age of 8 weeks were fed with powder mouse food mixed freshly with 0.2% cuprizone (w/w) and received daily intraperitoneal injection of rapamycin (10 mg/kg body weight) for 5 weeks to induce demyelination, then animals were allowed to recover (removal of cuprizone from the diet and rapamycin injection) and administrated with Example compound 2, at 30 mg/kg body weight orally, b.i.d. for an additional 9 days prior to sacrifice. The brain samples were collected for pathologic analysis. […]
Mice were deeply anesthetized and quickly perfused with 0.9% saline via the left cardiac ventricle to drain out blood. […] The sections were monitored to determine the extent of staining. […]
Image-Pro 6.3 software (Media Cybernetics, USA) was used for subsequent quantitative evaluation. […] For measurement of mean density, areas and IOD in central corpus callosum or cortex were calculated after all digital images were set under the same colour range. […]

T1 sequence (Q9QYN8 whole entry): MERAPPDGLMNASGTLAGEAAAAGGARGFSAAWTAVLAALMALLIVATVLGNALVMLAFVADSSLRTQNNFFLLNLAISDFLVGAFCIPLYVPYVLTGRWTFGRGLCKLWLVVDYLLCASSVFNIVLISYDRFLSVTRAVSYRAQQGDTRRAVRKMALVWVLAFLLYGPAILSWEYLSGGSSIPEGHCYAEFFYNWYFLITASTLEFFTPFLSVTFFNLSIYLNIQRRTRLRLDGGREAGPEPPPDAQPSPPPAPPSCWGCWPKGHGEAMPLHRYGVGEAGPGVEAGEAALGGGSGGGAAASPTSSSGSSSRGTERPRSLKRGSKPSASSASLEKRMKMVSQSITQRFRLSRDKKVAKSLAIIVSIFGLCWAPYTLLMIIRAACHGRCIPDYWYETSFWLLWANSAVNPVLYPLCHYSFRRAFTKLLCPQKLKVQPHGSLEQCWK

Question: c1cc2c(cc1-c1noc(CC3CCN(C4CCC4)CC3)n1)OCO2 [Example compound 2, 3-(benzo[d][1,3]dioxol-5-yl)-5-((1-cyclobutylpiperidin-4-yl)methyl)-1,2,4-oxadiazole] was tested. Which “Forskolin-stimulated cAMP level in primary OPCs” value (H3R) did it give?
Answer: The value was “increased”.

Question: And the “mean intensity of Black-gold II staining, forebrain corpus callosum” value ([1]; vehicle 14.65%)?
Answer: The value was 27.68±5.44%.

Question: And the “mean intensity of Black-gold II staining, forebrain cortex” value ([1]; vehicle 40.79%)?
Answer: The value was 60.05±6.28%.
